Two compounds from patent US20100068200A1, “Methods and Compositions for Inhibiting Atherosclerosis and Vascular Inflammation” (THE UNIVERSITY OF CONNECTICUT, priority 2008, published 2010) can be followed below.

One assay has as its system caspase-11. The assay can be described thus: caspase-11 protein expression in elicited peritoneal macrophages (western blot). The following applies: mouse elicited peritoneal macrophages; oxLDL 50 μg/ml or TNFα 50 ng/ml, 8 hrs. Type of assay: cell-based. Here is the method: Isolation of Thioglycolate-Elicited Peritoneal Cells. Mice were injected i.p. with 2 ml of 3% thioglycolate. Four days later, the peritoneal fluid was collected, and cells monolayer was prepared by addition of 1 ml/well (2×10^6 macrophages) into 35 mm culture dishes. Macrophage adhesion was allowed to proceed for 4 h at 37° C. in a 5% CO2 atmosphere.
Immunoprecipitation experiments. Cell or spleen extracts were prepared with RIPA buffer (25 mM Tris-HCl pH 7.6, 150 mM NaCl, 1% NP-40, 1% sodium deoxycholate, 0.1% SDS). Caspase-1 was immunoprecipitated with polyclonal rabbit anti-caspase-1 antibody (Santa Cruz) crosslinked to protein A beads and Caspase-11 was immunoprecipitated with monoclonal rat anti-caspase-11 antibody, crosslinked to protein G beads. For western blot analysis, BMDM were treated with LPS (1 μg/ml, E. coli serotype 026:B6; Sigma). Aortas or cells were solubilized in RIPA buffer or 2×SDS-sample buffer (20 mM DTT, 6% SDS, 0.25 M Tris pH 6.8, 10% Glycerol, bromophenyl blue, protease inhibitors, 1 mM sodium orthovanadate and 1 mM NaF), sonicated, boiled and separated by SDS-PAGE gel electrophoresis. […] Cells were treated as indicated with 1 μg/ml LPS (Sigma) and 50 ng/ml TNFα (Sigma) Immunoreactive bands density was quantified with Image Pro Plus Analysis Software (Media Cybernetics).

Another assay deals with S1p2r−/− macrophage. The assay can be described thus: reversal of caspase-11 null phenotype of S1p2r−/− macrophage. Type of assay: cell-based, mouse. The following applies: MG132 1-20 μM, chloroquine 10-100 μM, data not shown.

Where a SMILES comes first, the peptide text is derived from it. The star is where a group is joined. Cbz = O=C(OCc1ccccc1)*

Procedure for S1p2r−/− macrophage: Immunoprecipitation experiments. Cell or spleen extracts were prepared with RIPA buffer (25 mM Tris-HCl pH 7.6, 150 mM NaCl, 1% NP-40, 1% sodium deoxycholate, 0.1% SDS). Caspase-1 was immunoprecipitated with polyclonal rabbit anti-caspase-1 antibody (Santa Cruz) crosslinked to protein A beads and Caspase-11 was immunoprecipitated with monoclonal rat anti-caspase-11 antibody, crosslinked to protein G beads. For western blot analysis, BMDM were treated with LPS (1 μg/ml, E. coli serotype 026:B6; Sigma). Aortas or cells were solubilized in RIPA buffer or 2×SDS-sample buffer (20 mM DTT, 6% SDS, 0.25 M Tris pH 6.8, 10% Glycerol, bromophenyl blue, protease inhibitors, 1 mM sodium orthovanadate and 1 mM NaF), sonicated, boiled and separated by SDS-PAGE gel electrophoresis. Membranes were incubated with the following antibodies: anti-b-actin (Sigma), anti-eNOS (BD Pharmingen), anti-COX-2 (Cayman), anti-Caspase-1 (Santa Cruz), anti-Caspase-11 (Sigma), anti-IκBα, anti-VCAM (Santa Cruz), anti-phospho p38, anti-phospho ERK, p38 and ERK (Cell Signaling). Cells were treated as indicated with 1 μg/ml LPS (Sigma) and 50 ng/ml TNFα (Sigma) Immunoreactive bands density was quantified with Image Pro Plus Analysis Software (Media Cybernetics).

Consider TNFα, for which, in the assay with caspase-11, the “caspase-11 protein expression after stimulus” value is reported as “upregulates”.

Take `CC(C)C[C@@H](C=O)NC(=O)[C@H](CC(C)C)NC(=O)[C@H](CC(C)C)NC(=O)OCc1ccccc1` [MG132] (Cbz-Leu-Leu-Leu-aldehyde): the “reversal of caspase-11 null phenotype” value in the assay on S1p2r−/− macrophage is recorded as “could not reverse”.
